How the values were obtained:
[1] = target: Human Jak2 kinase domain (Homo sapiens (Human), UniProt O60674); test: Jak2 Inhibition Assay (Omnia kinase assay); type: biochemical; details: Table 1; 500 μM ATP; >1000 nM when >50% inhibition not observed at 1000 nM; read-out: Jak2 Enzyme IC50
[2] = target: TrkA (histidine-tagged recombinant human TrkA, cytoplasmic domain) (Homo sapiens (Human), UniProt P04629); test: TrkA ELISA Assay; type: biochemical; details: Table 1; ELISA, 500 μM ATP; read-out: TrkA Enzyme IC50
How it was run: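 ELISA read-out: a peroxidase-linked anti-phosphotyrosine antibody (PY20, 0.2 μg/mL) with TMB substrate, absorbance at 450 nm after acid stop. The plate-bound substrate was poly(Glu,Ala,Tyr; 6:3:1) at 0.025 mg/mL, phosphorylated by the recombinant His-tagged human TrkA cytoplasmic domain in the presence of inhibitors.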

Sequence of TrkA (histidine-tagged recombinant human TrkA, cytoplasmic domain) (P04629 440-796): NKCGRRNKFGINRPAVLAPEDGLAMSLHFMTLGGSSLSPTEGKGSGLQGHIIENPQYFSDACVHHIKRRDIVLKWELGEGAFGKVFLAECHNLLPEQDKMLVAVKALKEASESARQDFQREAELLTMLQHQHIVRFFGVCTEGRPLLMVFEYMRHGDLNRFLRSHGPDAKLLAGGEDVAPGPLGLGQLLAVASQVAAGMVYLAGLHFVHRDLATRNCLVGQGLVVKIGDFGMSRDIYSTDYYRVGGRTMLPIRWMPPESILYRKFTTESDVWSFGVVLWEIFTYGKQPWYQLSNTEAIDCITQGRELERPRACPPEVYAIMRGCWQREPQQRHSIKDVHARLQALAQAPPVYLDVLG
Sequence of Human Jak2 kinase domain (O60674 808-1132): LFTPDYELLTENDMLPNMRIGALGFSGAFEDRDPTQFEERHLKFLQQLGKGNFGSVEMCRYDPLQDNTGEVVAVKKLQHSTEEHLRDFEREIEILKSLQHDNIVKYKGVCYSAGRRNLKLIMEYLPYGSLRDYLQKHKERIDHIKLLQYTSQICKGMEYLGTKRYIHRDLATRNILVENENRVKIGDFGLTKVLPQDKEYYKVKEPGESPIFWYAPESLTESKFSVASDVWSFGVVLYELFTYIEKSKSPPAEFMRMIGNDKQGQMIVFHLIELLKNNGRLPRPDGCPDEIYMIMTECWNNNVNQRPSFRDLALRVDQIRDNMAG

Row | IC50 [1] [nM] | IC50 [2] [nM] | SMILES
1 | > 1000 | 6.13 | O=C(NOC[C@@H](O)CO)c1cnn2ccc(N3CCC[C@@H]3c3cc(F)ccc3F)nc12 [Example 88, 5-((R)-2-(2,5-difluorophenyl)pyrrolidin-1-yl)-N—((S)-2,3-dihydroxypropoxy)pyrazolo[1,5-a]pyrimidine-3-carboxamide]
2 | > 1000 | 90 | NC(=O)c1cnn2ccc(N3CCC[C@@H]3c3cc(F)cc(OCCN4CCOCC4)c3)nc12 [Example 76, (R)-5-(2-(3-fluoro-5-(2-morpholinoethoxy)phenyl)pyrrolidin-1-yl)pyrazolo[1,5-a]pyrimidine-3-carboxamide]
3 | > 1000 | 0.95 | Cc1ccc(CNC(=O)c2cnn3ccc(N4CCC[C@@H]4c4cc(F)ccc4F)nc23)o1 [Example 5, (R)-5-(2-(2,5-difluorophenyl)pyrrolidin-1-yl)-N-((5-methylfuran-2-yl)methyl)pyrazolo[1,5-a]pyrimidine-3-carboxamide]
4 | > 1000 | 3.6 | COCCOc1ccc(F)cc1[C@H]1CCCN1c1ccn2ncc(C(N)=O)c2n1 [Example 89, (R)-5-(2-(5-fluoro-2-(2-methoxyethoxy)phenyl)pyrrolidin-1-yl)pyrazolo[1,5-a]pyrimidine-3-carboxamide]
5 | > 1000 | 1.65 | O=C(NC1CC1)c1cnn2ccc(N3CCC[C@@H]3c3cccc(F)c3)nc12 [Example 37, (R)—N-cyclopropyl-5-(2-(3-fluorophenyl)pyrrolidin-1-yl)pyrazolo[1,5-a]pyrimidine-3-carboxamide]
6 | > 1000 | 36.7 | C[C@H](O)CNC(=O)c1cnn2ccc(N3CCC[C@@H]3c3cncc(F)c3)nc12 [Example 109, 5-((R)-2-(5-fluoropyridin-3-yl)pyrrolidin-1-yl)-N-((S)-2-hydroxypropyl)pyrazolo[1,5-a]pyrimidine-3-carboxamide]
7 | > 1000 | 2600 | O=C(c1cnn2ccc(N3CCC[C@@H]3c3cncc(F)c3)nc12)N1CC[C@H](O)C1 [Example 128, (5-((R)-2-(5-fluoropyridin-3-yl)pyrrolidin-1-yl)pyrazolo[1,5-a]pyrimidin-3-yl)((S)-3-hydroxypyrrolidin-1-yl)methanone]
8 | > 1000 | 6.2 | O=C(NCC(F)CCl)c1cnn2ccc(N3CCC[C@@H]3c3cncc(F)c3)nc12 (stereo partly drawn) [Example 97, N-(3-chloro-2-fluoropropyl)-5-((R)-2-(5-fluoropyridin-3-yl)pyrrolidin-1-yl)pyrazolo[1,5-a]pyrimidine-3-carboxamide]
9 | > 1000 | 3.3 | O=C(NC1CC1)c1cnn2ccc(N3CCC[C@@H]3c3cc(F)ccc3OCC(O)CO)nc12 (stereo partly drawn) [Example 210, N-cyclopropyl-5-((2R)-2-(2-(2,3-dihydroxypropoxy)-5-fluorophenyl)pyrrolidin-1-yl)pyrazolo[1,5-a]pyrimidine-3-carboxamide]
10 | 616 | 2.1 | Cn1cc(F)cc([C@H]2CCCN2c2ccn3ncc(C(=O)NC4(C)CC4)c3n2)c1=O [Example 237, (R)-5-(2-(5-fluoro-1-methyl-2-oxo-1,2-dihydropyridin-3-yl)pyrrolidin-1-yl)-N-(1-methylcyclopropyl)pyrazolo[1,5-a]pyrimidine-3-carboxamide]
11 | > 1000 | 0.6 | CONC(=O)c1cnn2ccc(N3CCC[C@@H]3c3cc(F)ccc3F)nc12 [Example 65, (R)-5-(2-(2,5-difluorophenyl)pyrrolidin-1-yl)-N-methoxypyrazolo[1,5-a]pyrimidine-3-carboxamide]
12 | > 1000 | 2.5 | COCCNC(=O)c1cnn2ccc(N3CCC[C@@H]3c3cc(F)ccc3F)nc12 [Example 172, 5-((R)-2-(2,5-difluorophenyl)pyrrolidin-1-yl)-N-(2-methoxyethyl)pyrazolo[1,5-a]pyrimidine-3-carboxamide]
13 | > 1000 | 0.7 | CC(C)(C)NC(=O)c1cnn2ccc(N3CCC[C@@H]3c3cc(F)ccc3F)nc12 [Example 1, (R)—N-tert-butyl-5-(2-(2,5-difluorophenyl)pyrrolidin-1-yl)pyrazolo[1,5-a]pyrimidine-3-carboxamide]

Source: patent publication US8791123B2, “Substituted pyrazolo[1,5-a]pyrimidine compounds as Trk kinase inhibitors” (Array Biopharma, Inc., priority 2009, dated 2014)
